Results on 3 molecules are retold here after patent US5126337A, “Thiazetoquinoline-3-carboxylic acid derivative and a pharmaceutical composition comprising the same” (priority 1989, dated 1992).

Values after ≈ are worked out from the molar mass of the structure shown.

Series [1] deals with Serratia marcescens HNR 1544. Nature of the series: Antibacterial spectrum, MIC by twofold agar dilution method. In kind it is cell-based. Conditions: HNR1544, 10^6 cfu/ml, clinically isolated strain, Gram -, 18 hrs at 37° C. Here is the method: (§1) Overnight cultures in Mueller-Hinton broth were suspended by buffered saline gelatin. One loopful of the bacterial suspension (10^6 or 10^8 colony-forming units/ml) was incubated onto the plates containing test compounds. The plates were incubated for 18 hrs at 37° C. The MIC was defined by the lowest concentration of the drug that inhibited visible growth of bacteria.
Background: In agar dilution, organisms are placed on agar that contains the substance at set levels.

The test system of series [2] is Pseudomonas aeruginosa HNR 1537. The series is described as above. Particulars: HNR1537, 10^6 cfu/ml, clinically isolated strain, Gram -, 18 hrs at 37° C. In kind it is cell-based. Here is the method:
as §1

The next series has as its system Enterobacter cloacae 963. The description is as above. The class given is cell-based. Conditions: 10^6 cfu/ml, standard laboratory strain, Gram -, 18 hrs at 37° C. Here is the method:
as §1

For series [3], the system named is Pseudomonas aeruginosa HNR 1489. The series is described as above. The class given is cell-based. Particulars: HNR1489, 10^6 cfu/ml, clinically isolated strain, Gram -, 18 hrs at 37° C. Here is the method:
as §1

For series [4], the system named is Enterobacter cloacae HNR 1941. Described as above. Particulars: HNR1941, 10^6 cfu/ml, clinically isolated strain, Gram -, 18 hrs at 37° C. The class given is cell-based. Here is the method:
as §1

The test system of series [5] is Pseudomonas aeruginosa IFO 3445. The series is described as above. Particulars: IFO3445, 10^6 cfu/ml, standard laboratory strain, Gram -, 18 hrs at 37° C. In kind it is cell-based. Here is the method: as §1
Series [6] has as its system Klebsiella pneumoniae HNR 828. The description is as above. In kind it is cell-based. Particulars: HNR828, 10^6 cfu/ml, clinically isolated strain, Gram -, 18 hrs at 37° C. Here is the method:
as §1

Series [7] concerns Serratia marcescens IAM 1184. Described as above. In kind it is cell-based. Conditions: IAM1184, 10^6 cfu/ml, standard laboratory strain, Gram -, 18 hrs at 37° C. Here is the method: as §1
The subject of series [8] is Klebsiella pneumoniae HNR 858. Described as above. In kind it is cell-based. Conditions: HNR858, 10^6 cfu/ml, clinically isolated strain, Gram -, 18 hrs at 37° C. Here is the method:
as §1

Series [9] concerns Acinetobacter calcoaceticus HNR 916. The series is described as above. Conditions: HNR916, 10^6 cfu/ml, clinically isolated strain, Gram -, 18 hrs at 37° C. In kind it is cell-based. Here is the method:
as §1

Series [10] has as its system Klebsiella pneumoniae HNR 869. Described as above. In kind it is cell-based. Particulars: HNR869, 10^6 cfu/ml, clinically isolated strain, Gram -, 18 hrs at 37° C. Here is the method: as §1
Series [11] concerns Enterococcus faecalis HPC 948. Described as above. Particulars: HPC948, 10^6 cfu/ml, clinically isolated strain, Gram +, 18 hrs at 37° C. In kind it is cell-based. Here is the method:
as §1

Series [12] concerns Serratia marcescens HNR 1767. Described as above. Conditions: HNR1767, 10^6 cfu/ml, clinically isolated strain, Gram -, 18 hrs at 37° C. In kind it is cell-based. Here is the method:
as §1

Series [13] relates to Pseudomonas aeruginosa HNR 1472. Described as above. The class given is cell-based. Particulars: HNR1472, 10^6 cfu/ml, clinically isolated strain, Gram -, 18 hrs at 37° C. Here is the method:
as §1

The subject of series [14] is Staphylococuss aureus FDA 209PJC-1. The series is described as above. The class given is cell-based. Particulars: 10^6 cfu/ml; standard laboratory strain, Gram +; 18 hrs at 37° C. Here is the method:
as §1

In series [15] the test system is Acinetobacter calcoaceticus HNR 939. The description is as above. The class given is cell-based. Particulars: HNR939, 10^6 cfu/ml, clinically isolated strain, Gram -, 18 hrs at 37° C. Here is the method: as §1
Series [16] relates to Enterobacter cloacae HNR 1946. The description is as above. Particulars: HNR1946, 10^6 cfu/ml, clinically isolated strain, Gram -, 18 hrs at 37° C. The class given is cell-based. Here is the method:
as §1

The subject of series [17] is Staphylococcuss aureus HPC 527. The series is described as above. In kind it is cell-based. Particulars: 10^6 cfu/ml; clinically isolated strain, Gram +; 18 hrs at 37° C. Here is the method: as §1
Series [18] deals with Staphylococcuss aureus HPC 292. The series is described as above. Conditions: 10^6 cfu/ml; clinically isolated strain, Gram +; 18 hrs at 37° C; read-out: MIC. The class given is cell-based. Here is the method: as §1
Series [19] relates to Enterobacter cloacae HNR 1939. Described as above. The class given is cell-based. Conditions: HNR1939, 10^6 cfu/ml, clinically isolated strain, Gram -, 18 hrs at 37° C. Here is the method:
as §1

Series [20] relates to Escherichia coli NIHJ JC-2. The series is described as above. Particulars: NIHJJC2, 10^6 cfu/ml, standard laboratory strain, Gram -, 18 hrs at 37° C. The class given is cell-based. Here is the method:
as §1

Series [21] concerns Enterococcus faecalis HPC 975. The series is described as above. The class given is cell-based. Conditions: HPC975, 10^6 cfu/ml, clinically isolated strain, Gram +, 18 hrs at 37° C. Here is the method:
as §1

The subject of series [22] is Enterococcus faecalis HPC 984. The description is as above. In kind it is cell-based. Conditions: HPC984, 10^6 cfu/ml, clinically isolated strain, Gram +, 18 hrs at 37° C. Here is the method:
as §1

Series [23] relates to Klebsiella pneumoniae PCI-602. The series is described as above. The class given is cell-based. Particulars: PCI602, 10^6 cfu/ml, standard laboratory strain, Gram -, 18 hrs at 37° C, read-out: MIC. Here is the method:
Minimum inhibitory concentrations (MIC) of test compounds were determined by the twofold agar dilution method (Chemotherapy, 29(1), 76(1981)). Overnight cultures in Mueller-Hinton broth were suspended by buffered saline gelatin. One loopful of the bacterial suspension (10^6 or 10^8 colony-forming units/ml) was incubated onto the plates containing test compounds. The plates were incubated for 18 hrs at 37° C. The MIC was defined by the lowest concentration of the drug that inhibited visible growth of bacteria.

A further series relates to Male mice of ddY strain. Nature of the series: Convulsion inducing activity in combination with fenbufen. Particulars: 30 min after fenbufen 100 mg/kg orally.

Protocol for Male mice of ddY strain: Male mice of ddY strain, 5 weeks old, were used. Fenbufen suspended in 0.5% carboxymethyl cellulose was administered orally at a dose of 100 mg/kg. After thirty minutes, test compounds suspended in 0.5% carboxymethyl cellulose were injected intraperitoneally (i.p.) at a dose of 100 mg/kg or 300 mg/kg.

On to `CC1Sc2c(C(=O)O)c(=O)c3cc(F)c(N4CCC(N)C4)c(Cl)c3n21` (centres unmarked) [Example 34, 7-(3-Amino-1-pyrrolidinyl)-8-chloro-6-fluoro-1-methyl-4-oxo-1H,4H-[1,3]thiazeto[3,2-a]quinoline-3-carboxylic acid], for which the minimal inhibitory concentration (MIC) (commonly the lowest concentration that inhibits growth of the organism) in [1] stood at 0.05 µg/mL (≈ 0.13 µM); in series [2] it was 3.13 µg/mL (≈ 8.15 µM); in the series with Enterobacter cloacae 963, 0.025 µg/mL (≈ 0.0651 µM); in series [3], 0.2 µg/mL (≈ 0.521 µM); in [4], 1.56 µg/mL (≈ 4.06 µM); in series [5], 0.1 µg/mL (≈ 0.261 µM). In addition, the MIC is 3.13 µg/mL (≈ 8.15 µM) in series [6]; 0.05 µg/mL (≈ 0.13 µM) in series [7]; 0.2 µg/mL (≈ 0.521 µM) in [8]; 0.1 µg/mL (≈ 0.261 µM) in series [9]; 0.78 µg/mL (≈ 2.03 µM) in series [10]; 0.78 µg/mL (≈ 2.03 µM) in [11]. Besides, the MIC was 6.25 µg/mL (≈ 16.3 µM) in series [12]; 3.13 µg/mL (≈ 8.15 µM) in series [13]; 0.05 µg/mL (≈ 0.13 µM) in series [14]; 1.56 µg/mL (≈ 4.06 µM) in series [15]; 0.2 µg/mL (≈ 0.521 µM) in series [16]; 0.05 µg/mL (≈ 0.13 µM) in series [17]. Further, the minimum inhibitory concentration (MIC) in series [18] was 6.25 µg/mL (≈ 16.3 µM); in [19] it was 0.2 µg/mL (≈ 0.521 µM); in series [20], 0.025 µg/mL (≈ 0.0651 µM); in series [21] it was 12.5 µg/mL (≈ 32.6 µM); in series [22], 0.2 µg/mL (≈ 0.521 µM); in [23], 0.012 µg/mL (≈ 0.0313 µM). Besides, the “Number of convulsion induced/Number of animals” value in the series on Male mice of ddY strain (100 mg/kg (i.p.)) and in the series on Male mice of ddY strain (300 mg/kg (i.p.)) was 0/6 throughout.

With `CC1Sc2c(C(=O)O)c(=O)c3cc(F)c(N4CCNCC4)c(F)c3n21` (centres unmarked) [Reference Drug C, 6,8-difluoro-1-methyl-4-oxo-7-(1-piperazinyl)-1H,4H-[1,3]thiazeto[3,2-a]quinoline-3-carboxylic acid, reference compound], the “Number of convulsion induced/Number of animals” value with Male mice of ddY strain (100 mg/kg (i.p.)) is reported as 6/6.

For `CC1Sc2c(C(=O)O)c(=O)c3cc(F)c(N4CCC(N)C4)cc3n21` (centres unmarked) [Reference Drug D, 7-(3-amino-1-pyrrolidinyl)-6-fluoro-1-methyl-4-oxo-1H,4H-[1,3]thiazeto[3,2-a]quinoline-3-carboxylic acid, reference compound], the “Number of convulsion induced/Number of animals” value in the series with Male mice of ddY strain (100 mg/kg (i.p.)) and in the series on Male mice of ddY strain (300 mg/kg (i.p.)) was 0/6 each time.
